Patent publication US12459951B2, “Compounds that interact with RAS superfamily proteins for treatment of cancers, inflammatory diseases, rasopathies, and fibrotic disease” (SHY Therapeutics, LLC, priority 2022, dated 2025)

How the values were obtained:
Rheb = target: T1, Rheb (Homo sapiens, UniProt Q15382); assay: Rheb GTP Binding Domain Inhibition Assay; details: read-out: Rheb: % inh.
T1 construct: made in house
In short: (§1)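 His-tagged cdc42 or Rheb (10–30 μg/mL) bound to nickel plates, then exposed to compound (20 μM, or serial dilutions for IC50) in 1% DMSO for 3 h at room temperature, ±Sos during final hour. Cy3- or Cy5-GTP (100 nM) added for 45 min; bound labelled GTP read by fluorescence after washes.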

cdc42 = target: T2, cdc42 (Homo sapiens, UniProt P60953); assay: Cdc42 GTP Binding Domain Inhibition Assay; details: read-out: Cdc42: % inh.
T2 construct: made in house
In short: as §1

A375 (wild type Kras) = assay: Proliferation Assay (Cell Viability Assay); assay type: cell-based; details: Homo sapiens, A-375; Proliferation assay, A375; read-out: A375 IC50 (nM) Melanoma
In short: (§2)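 Cells plated at 2000–5000/well overnight, then treated 2–4 days at 37 °C, 5% CO2 with compound at 10 μM single dose or serial dilutions for IC50, in 0.3% DMSO and 10% FBS. Viability read by CellTiter 96 Aqueous One (MTS); % proliferation inhibition calculated from raw data.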

[1] = system: BT-549 (expressing wild type KRAS); assay: Proliferation Assay (Cell Viability Assay); assay type: cell-based; details: Homo sapiens, BT-549; Proliferation assay, BT549; read-out: BT549 IC50 (nM) TNBC
In short: as §2

[2] = system: NCI-H358 (expressing KRas G12C mutant); assay: Proliferation Assay (Cell Viability Assay); assay type: cell-based; details: Homo sapiens; Proliferation assay, NCI-H358; read-out: NCI-H358 IC50 (nM) NSCLC
In short: as §2

T1 sequence (Q15382 whole entry, the tested form may be a part): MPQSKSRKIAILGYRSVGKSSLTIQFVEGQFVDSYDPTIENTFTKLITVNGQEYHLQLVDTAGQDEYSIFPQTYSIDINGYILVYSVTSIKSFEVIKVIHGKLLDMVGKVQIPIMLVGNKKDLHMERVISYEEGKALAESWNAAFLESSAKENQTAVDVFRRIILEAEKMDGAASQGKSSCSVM
T2 sequence (P60953 whole entry, the tested form may be a part): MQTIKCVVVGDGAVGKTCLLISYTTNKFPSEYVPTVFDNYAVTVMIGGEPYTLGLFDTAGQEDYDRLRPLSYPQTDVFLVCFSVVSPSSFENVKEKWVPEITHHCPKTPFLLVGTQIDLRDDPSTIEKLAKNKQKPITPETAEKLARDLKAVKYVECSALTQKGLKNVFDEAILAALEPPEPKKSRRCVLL

Structure (SMILES) | inhibition at 20 µM (Rheb) [%] | inhibition at 20 µM (cdc42) [%] | IC50 (A375 (wild type Kras)) [nM] | IC50 [1] [nM] | IC50 [2] [nM]
COc1cccc(-c2cn3nc(-c4nccn4C)nc(N[C@@H]4CC[C@@H](OC)C4)c3c2-c2ccccc2)c1Cl.Cl (racemic) [Compound 34, rac 6-(2-Chloro-3-methoxyphenyl)-N-((1R,3R)-3-methoxycyclopentyl)-2-(1-methyl-1H-imidazol-2-yl)-5-phenylpyrrolo[2,1-f][1,2,4]triazin-4-amine hydrochloride] | 26 to 49 | 1 to 25 |  |  | 
Cc1c(-c2ccn(C(C)C)n2)cn2nc(-c3nccn3C)nc(Nc3noc(C4CC4)n3)c12 [Compound 75, 5-Cyclopropyl-N-(6-(1-isopropyl-1H-pyrazol-3-yl)-5-methyl-2-(1-methyl-1H-imidazol-2-yl)pyrrolo[2,1-f][1,2,4]triazin-4-yl)-1,2,4-oxadiazol-3-amine] | 1 to 25 | 1 to 25 |  |  | 
Cc1c(-c2ccn(C(C)C)n2)cn2nc(-c3nccn3C)nc(Nc3ccn(C4CC4)n3)c12 [Compound 84, N-(1-Cyclopropyl-1H-pyrazol-3-yl)-6-(1-isopropyl-1H-pyrazol-3-yl)-5-methyl-2-(1-methyl-1H-imidazol-2-yl)pyrrolo[2,1-f][1,2,4]triazin-4-amine] |  |  | 1 to 10 | 1 to 10 | 1 to 10
Cc1c(-c2ccn(C(C)C)n2)cn2nc(-c3nccn3C)nc(Nc3cc4n(n3)CCO4)c12 [Compound 91, N-(6-(1-Isopropyl-1H-pyrazol-3-yl)-5-methyl-2-(1-methyl-1H-imidazol-2-yl)pyrrolo[2,1-f][1,2,4]triazin-4-yl)-2,3-dihydropyrazolo[5,1-b]oxazol-6-amine] |  |  | 1 to 10 | 1 to 10 | 1 to 10
COCCO[C@H]1C[C@H](Nc2nc(-c3nccn3C)nn3cc(-c4ccn(C(C)C)n4)c(C)c23)C1 [Compound 92, 6-(1-Isopropyl-1H-pyrazol-3-yl)-N-((1r,3r)-3-(2-methoxyethoxy)cyclobutyl)-5-methyl-2-(1-methyl-1H-imidazol-2-yl)pyrrolo[2,1-f][1,2,4]triazin-4-amine] | 0 | 1 to 25 |  |  | 
